Reference: patent US12479830B2, “Homopiperazinyl and homopiperidinyl quinazolin-4(3H)-one derivatives having multimodal activity against pain” (ESTEVE PHARMACEUTICALS, S.A., priority 2019, dated 2025)

How the values were obtained:
[1] = target: Human α2δ-1 subunit of Cav2.2 calcium channel (Homo sapiens, UniProt P54289); experiment: Human α2δ-1 subunit of Cav2.2 calcium channel assay ([3H]-gabapentin binding); conditions: binding to the α2δ-1 subunit of voltage-gated calcium channels, expressed as Ki class; + also covers inhibition between 1% and 50%
Chain of Human α2δ-1 subunit of Cav2.2 calcium channel (P54289 25-1103): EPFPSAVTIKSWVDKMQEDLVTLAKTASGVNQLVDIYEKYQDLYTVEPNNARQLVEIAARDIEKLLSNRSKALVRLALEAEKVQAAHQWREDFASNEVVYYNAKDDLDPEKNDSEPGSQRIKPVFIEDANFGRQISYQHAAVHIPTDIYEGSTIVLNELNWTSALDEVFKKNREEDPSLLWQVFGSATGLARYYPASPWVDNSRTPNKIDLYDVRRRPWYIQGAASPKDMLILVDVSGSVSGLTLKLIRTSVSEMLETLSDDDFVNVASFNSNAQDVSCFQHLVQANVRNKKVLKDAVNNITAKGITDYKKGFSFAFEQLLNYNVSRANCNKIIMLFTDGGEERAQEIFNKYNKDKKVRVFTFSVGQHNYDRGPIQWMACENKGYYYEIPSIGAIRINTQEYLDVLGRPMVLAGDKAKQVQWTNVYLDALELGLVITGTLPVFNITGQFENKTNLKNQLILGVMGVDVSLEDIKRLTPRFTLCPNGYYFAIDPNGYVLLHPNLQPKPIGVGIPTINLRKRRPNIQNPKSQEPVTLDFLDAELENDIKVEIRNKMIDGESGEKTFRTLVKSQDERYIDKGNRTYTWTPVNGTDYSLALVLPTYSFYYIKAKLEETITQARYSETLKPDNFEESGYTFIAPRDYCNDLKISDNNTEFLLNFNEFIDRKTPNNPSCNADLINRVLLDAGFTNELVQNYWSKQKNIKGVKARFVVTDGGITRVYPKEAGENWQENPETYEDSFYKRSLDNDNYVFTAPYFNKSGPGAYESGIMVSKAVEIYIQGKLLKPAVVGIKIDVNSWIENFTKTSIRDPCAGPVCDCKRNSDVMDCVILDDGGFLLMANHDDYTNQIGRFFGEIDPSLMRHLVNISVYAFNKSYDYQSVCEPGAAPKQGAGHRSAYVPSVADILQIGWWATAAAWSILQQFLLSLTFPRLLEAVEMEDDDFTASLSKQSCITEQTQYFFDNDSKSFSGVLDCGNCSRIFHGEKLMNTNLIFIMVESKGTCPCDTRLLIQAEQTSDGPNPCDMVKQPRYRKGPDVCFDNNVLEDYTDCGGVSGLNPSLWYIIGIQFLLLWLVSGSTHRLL
Outline: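 Affinity (Ki, five concentrations) or % inhibition at 1 or 10 μM, from displacement of 15 nM [3H]-gabapentin on human α2δ-1 membranes. Incubation 60 min, 27° C., Hepes-KOH 10 mM pH 7.4; 10 μM pregabalin defined non-specific binding; bound radioactivity counted after GF/C filtration.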

[2] = target: T1, Human σ1 receptor (Homo sapiens, UniProt Q99720); experiment: Human σ1 receptor radioligand assay ([3H](+)-pentazocine binding); conditions: binding to the σ1 receptor, expressed as Ki class; + also covers inhibition between 1% and 50%
T1 construct: expressed in transfected cells; host or cells: HEK-293
T1 sequence (Q99720 whole entry): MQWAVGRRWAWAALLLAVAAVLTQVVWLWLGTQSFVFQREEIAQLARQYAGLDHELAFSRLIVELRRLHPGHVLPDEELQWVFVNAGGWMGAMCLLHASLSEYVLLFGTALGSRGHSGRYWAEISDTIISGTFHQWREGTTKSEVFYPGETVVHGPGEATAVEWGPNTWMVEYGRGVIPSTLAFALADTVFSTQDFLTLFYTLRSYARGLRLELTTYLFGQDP
Outline: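 Ki was derived from five test concentrations, or % inhibition was measured at a single 1 or 10 μM dose, against 5 nM [3H](+)-pentazocine. Incubation was 120 min at 37° C in 50 mM Tris-HCl pH 8 with 7 μg HEK-293 membranes, and 10 μM haloperidol set non-specific binding. Bound radioactivity was counted after filtration.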

SMILES | Ki [1] [nM] | Ki [2] [nM]
CCC[C@H](c1nc2ncc(Br)cc2c(=O)n1CC)N1CCN(C)C[C@H](C)C1 [Example 187, 6-bromo-2-((R)-1-((S)-4,6-dimethyl-1,4-diazepan-1-yl)butyl)-3-ethylpyrido[2,3-d]pyrimidin-4(3H)-one] | < 500 | > 1000
CCCC(c1nc2cc(F)c(Br)cc2c(=O)n1CCC)N1CCCN(C)CC1 (stereo not drawn) [Example 26, 6-bromo-7-fluoro-2-(1-(4-methyl-1,4-diazepan-1-yl)butyl)-3-propylquinazolin-4(3H)-one] | < 500 | < 500
CCC[C@H](c1nc2ccc(F)cc2c(=O)n1C)N1CCCN(CC)CC1 [Example 217, (R)-2-(1-(4-ethyl-1,4-diazepan-1-yl)butyl)-6-fluoro-3-methylquinazolin-4(3H)-one] | > 5000 | < 500
CCC[C@H](c1nc2ccc(Br)cc2c(=O)n1CC)N1CCNC[C@H](O)C1 [Example 116, 6-bromo-3-ethyl-2-((R)-1-((S)-6-hydroxy-1,4-diazepan-1-yl)butyl)quinazolin-4(3H)-one] | < 500 | > 1000
CCC[C@H](c1nc2cc(OC)c(F)cc2c(=O)n1CC)N1CCCN(C)CC1 [Example 230, (R)-3-ethyl-6-fluoro-7-methoxy-2-(1-(4-methyl-1,4-diazepan-1-yl)butyl)quinazolin-4(3H)-one] | < 500 | 500 to 1000
CCCC(c1nc2ccc(Br)cc2c(=O)n1CC)N1CCCN(Cc2ccccc2)CC1 (stereo not drawn) [Example 6, 2-(1-(4-benzyl-1,4-diazepan-1-yl)butyl)-6-bromo-3-ethylquinazolin-4(3H)-one] | > 5000 | < 500
CCC[C@@H](c1nc2ccc(Br)cc2c(=O)n1CC)N1CCNC[C@H](O)C1 [Example 115, 6-bromo-3-ethyl-2-((S)-1-((S)-6-hydroxy-1,4-diazepan-1-yl)butyl)quinazolin-4(3H)-one] | > 5000 | > 1000
CCCC(c1nc2ncc(Br)cc2c(=O)n1CC)N1CCCNCC1 (stereo not drawn) [Example 177, 2-(1-(1,4-diazepan-1-yl)butyl)-6-bromo-3-ethylpyrido[2,3-d]pyrimidin-4(3H)-one] | < 500 | > 1000
CCCC(c1nc2ncc(Br)cc2c(=O)n1CCC)N1CCCN(C)CC1 (stereo not drawn) [Example 181, 6-bromo-2-(1-(4-methyl-1,4-diazepan-1-yl)butyl)-3-propylpyrido[2,3-d]pyrimidin-4(3H)-one] | < 500 | > 1000
CCC[C@@H](c1nc2ncc(F)cc2c(=O)n1CC)N1CCCN(C)CC1 [Example 202, (S)-3-ethyl-6-fluoro-2-(1-(4-methyl-1,4-diazepan-1-yl)butyl)pyrido[2,3-d]pyrimidin-4(3H)-one] | > 5000 | > 1000
CCC[C@@H](c1nc2ccc(Br)cc2c(=O)n1CC)N1CCN(C)C[C@@H](C)C1 [Example 38, 6-bromo-2-((S)-1-((R)-4,6-dimethyl-1,4-diazepan-1-yl)butyl)-3-ethylquinazolin-4(3H)-one] | > 5000 | > 1000
CCCC(c1nc2ccc(Br)c(Cl)c2c(=O)n1CC)N1CCCNCC1 (stereo not drawn) [Example 82, 2-(1-(1,4-diazepan-1-yl)butyl)-6-bromo-5-chloro-3-ethylquinazolin-4(3H)-one] | 500 to 5000 | 500 to 1000
CCC[C@H](c1nc2ccc(Br)cc2c(=O)n1CC)N1CCN(C)C[C@H](C)C1 [Example 36, 6-bromo-2-((R)-1-((S)-4,6-dimethyl-1,4-diazepan-1-yl)butyl)-3-ethylquinazolin-4(3H)-one] | < 500 | 500 to 1000
CCC[C@H](c1nc2cc(F)c(Br)cc2c(=O)n1CC)N1CCN(C)C[C@@H](C)C1 [Example 130, 6-bromo-2-((R)-1-((R)-4,6-dimethyl-1,4-diazepan-1-yl)butyl)-3-ethyl-7-fluoroquinazolin-4 (3H)-one] | < 500 | 500 to 1000
CCC[C@H](c1nc2cc(F)c(Cl)cc2c(=O)n1CC)N1CCN(C)C[C@H](C)C1 [Example 135, 6-Chloro-2-((R)-1-((S)-4,6-dimethyl-1,4-diazepan-1-yl)butyl)-3-ethyl-7-fluoroquinazolin-4(3H)-one] | < 500 | < 500
CCC[C@H](c1nc2ccc(F)c(F)c2c(=O)n1CC)N1CCCN(C)CC1 [Example 233, (R)-3-ethyl-5,6-difluoro-2-(1-(4-methyl-1,4-diazepan-1-yl)butyl)quinazolin-4(3H)-one] | < 500 | < 500
CCC[C@@H](c1nc2cc(Cl)c(Cl)cc2c(=O)n1CC)N1CCNC[C@@H](C)C1 [Example 112, 6,7-dichloro-3-ethyl-2-((S)-1-((R)-6-methyl-1,4-diazepan-1-yl)butyl)quinazolin-4 (3H)-one] | > 5000 | > 1000
CCCC(c1nc2ccc(F)cc2c(=O)n1CC)C1CCCNCC1 (stereo not drawn) [Example 266, 2-(1-(Azepan-4-yl)butyl)-3-ethyl-6-fluoroquinazolin-4(3H)-one] | < 500 | > 1000
CCCC(c1nc2cc(Br)c(F)cc2c(=O)n1CCC)N1CCCN(C)CC1 (stereo not drawn) [Example 31, 7-bromo-6-fluoro-2-(1-(4-methyl-1,4-diazepan-1-yl)butyl)-3-propylquinazolin-4(3H)-one] | < 500 | 500 to 1000
CCCC(c1nc2c(F)cc(Br)cc2c(=O)n1CC)N1CCCN(CC)CC1 (stereo not drawn) [Example 57, 6-bromo-3-ethyl-2-(1-(4-ethyl-1,4-diazepan-1-yl)butyl)-8-fluoroquinazolin-4(3H)-one] | 500 to 5000 | 500 to 1000
CC[C@@H]1CCn2c(nc3ccc(Br)cc3c2=O)[C@H]1N1CCCN(C)CC1 [Example 269, (6S,7R)-2-Bromo-7-ethyl-6-(4-methyl-1,4-diazepan-1-yl)-8,9-dihydro-6H-pyrido[2,1-b]quinazolin-11(7H)-one] | > 5000 | 500 to 1000
CCC[C@H](c1nc2cc(F)c(Br)cc2c(=O)n1CC)N1CCCN(C)CC1 [Example 155, (R)-6-Bromo-3-ethyl-7-fluoro-2-(1-(4-methyl-1,4-diazepan-1-yl)butyl)quinazolin-4(3H)-one] | > 5000 | > 1000
CCCC(c1nc2ccc(Br)cc2c(=O)n1CCOC)N1CCCN(C)CC1 (stereo not drawn) [Example 14, 6-bromo-3-(2-methoxyethyl)-2-(1-(4-methyl-1,4-diazepan-1-yl)butyl)quinazolin-4(3H)-one] | 500 to 5000 | > 1000
CCC[C@H](c1nc2ccc(Br)cc2c(=O)n1CC)N1CCNC[C@@H](O)C1 [Example 114, 6-bromo-3-ethyl-2-((R)-1-((R)-6-hydroxy-1,4-diazepan-1-yl)butyl)quinazolin-4(3H)-one] | < 500 | > 1000
CCCC(c1nc2ncc(Br)cc2c(=O)n1CC)N1CCCN(C)CC1 (stereo not drawn) [Example 175, 6-Bromo-3-ethyl-2-(1-(4-methyl-1,4-diazepan-1-yl)butyl)pyrido[2,3-d]pyrimidin-4(3H)-one] | < 500 | > 1000
CCC[C@H](c1nc2ccc(Cl)cc2c(=O)n1C)N1CC[C@H](C)N(C)CC1 [Example 254, 6-chloro-2-((R)-1-((S)-4,5-dimethyl-1,4-diazepan-1-yl)butyl)-3-methylquinazolin-4(3H)-one] | > 5000 | < 500
CCC[C@H](c1nc2ccc(F)cc2c(=O)n1C(C)C)N1CCCN(C)CC1 [Example 222, (R)-6-fluoro-3-isopropyl-2-(1-(4-methyl-1,4-diazepan-1-yl)butyl)quinazolin-4(3H)-one] | > 5000 | 500 to 1000
